Measurements published in patent publication US4988686A, “Cephem compounds and anti-bacterial agent” (Meiji Seika Kabushiki Kaisha, priority 1988, dated 1991).
≈ marks a conversion by molar mass, not a printed value. Where two headings read alike, the source gives them in different places.

Tests used:
Experiment in all cases: agar-dilution method, minimum inhibitory concentration
Assay type in all cases: cell-based
Escherichia coli 255 = test system: Escherichia coli 255
Excerpt: (§1) In order to illustrate the utility of the objective compound (I), anti-bacterial activities measured by the agar-dilution method for some of these compounds (I) are shown in table 1.

[1] = test system: Staphylococcus aureus 209PJC-1
Excerpt: as §1

Proteus vulgaris 76 = test system: Proteus vulgaris 76
Excerpt: as §1

[2] = test system: Pseudomonas cepacia M-0527; conditions: Burkholderia cepacia, M0527
Excerpt: as §1

Escherichia coli No. 29 = test system: Escherichia coli No. 29
Excerpt: as §1

[3] = test system: Pseudomonas aeruginosa IMA-1007
Excerpt: as §1

[4] = test system: Pseudomonas aeruginosa E-2
Excerpt: as §1

[5] = test system: Cytrobacter freundii GN346; conditions: read-out: Minimum Inhibitory Concentration
Excerpt: as §1

[6] = test system: Enterobacter cloacae GN7471
Excerpt: as §1

[7] = test system: Klebsiella pneumoniae GN69
Excerpt: as §1

[8] = test system: Serratia marcescens No. 1
Excerpt: as §1

[9] = test system: Bacillus subtilis ATCC 6633
Excerpt: as §1

[10] = test system: Pseudomonas aeruginosa M-0148
Excerpt: as §1

[11] = 209PJC1, Staphylococcus aureus 209PJC-1, agar-dilution method, read-out: Minimum Inhibitory Concentration
[12] = Proteus vulgaris 76, agar-dilution method, read-out: Minimum Inhibitory Concentration
[13] = IMA1007, Pseudomonas aeruginosa IMA-1007, agar-dilution method, read-out: Minimum Inhibitory Concentration
[14] = E2, Pseudomonas aeruginosa E-2, agar-dilution method, read-out: Minimum Inhibitory Concentration
[15] = Cytrobacter freundii GN346, agar-dilution method
[16] = Enterobacter cloacae GN7471, agar-dilution method, read-out: Minimum Inhibitory Concentration
[17] = Klebsiella pneumoniae GN69, agar-dilution method, read-out: Minimum Inhibitory Concentration
[18] = Serratia marcescens No. 1, agar-dilution method, read-out: Minimum Inhibitory Concentration
[19] = ATCC6633, Bacillus subtilis ATCC 6633, agar-dilution method, read-out: Minimum Inhibitory Concentration
[20] = M0148, Pseudomonas aeruginosa M-0148, agar-dilution method, read-out: Minimum Inhibitory Concentration

| MIC (Escherichia coli 255) [µg/mL] | MIC [1, 11] [µg/mL] | MIC (Proteus vulgaris 76; [12]) [µg/mL] | MIC [2] [µg/mL] | MIC (Escherichia coli No. 29) [µg/mL] | MIC [3, 13] [µg/mL] | MIC [4, 14] [µg/mL] | MIC [5, 15] [µg/mL] | MIC [6, 16] [µg/mL] | MIC [7, 17] [µg/mL] | MIC [8, 18] [µg/mL] | MIC [9, 19] [µg/mL] | MIC [10, 20] [µg/mL] | SMILES | also measured |
| --- | --- | --- | --- | --- | --- | --- | --- | --- | --- | --- | --- | --- | --- | --- |
| 0.1 (≈ 0.147 µM) | 100 (≈ 147 µM) | 0.05 (≈ 0.0733 µM) | ≤ 0.025 | 0.1 (≈ 0.147 µM) | ≤ 0.025 | 0.05 (≈ 0.0733 µM) | 6.25 (≈ 9.17 µM) | 1.56 (≈ 2.29 µM) | 0.1 (≈ 0.147 µM) | 0.1 (≈ 0.147 µM) | 12.5 (≈ 18.3 µM) | 0.2 (≈ 0.293 µM) | CC(C)(O/N=C(\C(=O)N[C@@H]1C(=O)N2C(C(=O)O)=C(/C=C/c3cc(=O)c(O)cn3Cc3ccncc3)CS[C@H]12)c1csc(N)n1)C(=O)O [Example 21, (6R,7R)-7-[(Z)-2-aminothiazol-4-y1)-2-(1-methyl-1-carboxy)ethoxyiminoacetamido]-3-[2-(5-hydroxy-1-(4-pyridyl)methyl-4-pyridon-2-y1)vinyl]-ceph-3-em-4carboxylic acid, trans-isomer] |  |
| 0.2 (≈ 0.365 µM) | 12.5 (≈ 22.8 µM) | 0.1 (≈ 0.182 µM) | 12.5 (≈ 22.8 µM) | 0.2 (≈ 0.365 µM) | 0.78 (≈ 1.42 µM) | 0.78 (≈ 1.42 µM) | 25 (≈ 45.6 µM) | 1.56 (≈ 2.84 µM) | 0.2 (≈ 0.365 µM) | 0.2 (≈ 0.365 µM) | 0.78 (≈ 1.42 µM) | 12.5 (≈ 22.8 µM) | CO/N=C(\C(=O)N[C@@H]1C(=O)N2C(C(=O)O)=C(/C=C\c3cc(=O)c(O)cn3OC)CS[C@H]12)c1csc(N)n1 [Example 10] |  |
| ≤ 0.025 | > 100 | ≤ 0.025 | ≤ 0.025 | 0.1 (≈ 0.165 µM) | ≤ 0.025 | ≤ 0.025 | 12.5 (≈ 20.6 µM) | 0.78 (≈ 1.29 µM) | ≤ 0.025 | 0.05 (≈ 0.0824 µM) | 100 (≈ 165 µM) | ≤ 0.025 | CC(C)(O/N=C(\C(=O)N[C@@H]1C(=O)N2C(C(=O)O)=C(/C=C/c3cc(=O)c(O)cn3O)CS[C@H]12)c1csc(N)n1)C(=O)O [Example 5, (6R,7R)-7-[(Z)-2-(2-aminothiazol-4-yl)-2-(1-methyl-1carboxy)ethoxyiminoacetamido]-3-[2-(1,5-dihydroxy-4-pyridon-2-yl)vinyl]-ceph-3-em-4-carboxylic acid, trans-isomer] |  |
| 0.1 (≈ 0.188 µM) | 6.25 (≈ 11.7 µM) | ≤ 0.025 | ≤ 0.025 | 0.05 (≈ 0.0939 µM) | 1.56 (≈ 2.93 µM) | 1.56 (≈ 2.93 µM) | 1.56 (≈ 2.93 µM) | 0.1 (≈ 0.188 µM) | 0.05 (≈ 0.0939 µM) | ≤ 0.025 | 0.78 (≈ 1.46 µM) | 12.5 (≈ 23.5 µM) | CO/N=C(\C(=O)N[C@@H]1C(=O)N2C(C(=O)O)=C(/C=C/c3cc(=O)c(O)cn3C)CS[C@H]12)c1csc(N)n1 [Example 7, (6R ,7R)-7 - [(Z )-2-(2-aminothiazol-4-yl)-2-methoxyiminoacetamido]-3-[2-(5-hydroxy-1-methyl-4-pyridon-2-yl)vinyl]-ceph-3-em-4-carboxylic acid, trans-isomer] |  |
| ≤ 0.025 | 25 (≈ 46.8 µM) | ≤ 0.025 | ≤ 0.025 | ≤ 0.025 | 0.1 (≈ 0.187 µM) | 0.1 (≈ 0.187 µM) | 0.1 (≈ 0.187 µM) | 0.05 (≈ 0.0935 µM) | 0.05 (≈ 0.0935 µM) | ≤ 0.025 | 6.25 (≈ 11.7 µM) | 0.2 (≈ 0.374 µM) | CO/N=C(\C(=O)N[C@@H]1C(=O)N2C(C(=O)O)=C(/C=C/c3cc(=O)c(O)cn3O)CS[C@H]12)c1csc(N)n1 [Example 2, (6R, 7R)-7-[(Z)-2-(2-aminothiazol-4-yl)-2-methoxyiminoacetamido]-3-[2-(1,5-dihydroxy-4-pyridon-2-yl)vinyl]-ceph-3-em-4-carboxylic] |  |
| 0.05 (≈ 0.0827 µM) | 100 (≈ 165 µM) | ≤ 0.025 | ≤ 0.025 | 0.1 (≈ 0.165 µM) | ≤ 0.025 | 0.05 (≈ 0.0827 µM) | 3.13 (≈ 5.18 µM) | 0.2 (≈ 0.331 µM) | 0.05 (≈ 0.0827 µM) | 0.1 (≈ 0.165 µM) | 12.5 (≈ 20.7 µM) | 0.2 (≈ 0.331 µM) | Cn1cc(O)c(=O)cc1/C=C/C1=C(C(=O)O)N2C(=O)[C@@H](NC(=O)/C(=N\OC(C)(C)C(=O)O)c3csc(N)n3)[C@H]2SC1 [Example 12, (6R,7R)-7-[(Z)-2-(2-aminothiazol-4-y1)-2-(1-methyl-1carboxy)ethoxyiminoacetamido]-3-[2-(5-hydroxy-1-methyl-4-pyridon-2-yl)vinyl]-ceph-3-em-4-carboxylic acid, trans-isomer] |  |

| SMILES | MIC (Escherichia coli 255) [µg/mL] | MIC [1, 11] [µg/mL] | MIC (Proteus vulgaris 76; [12]) [µg/mL] | MIC [2] [µg/mL] | MIC (Escherichia coli No. 29) [µg/mL] | MIC [3, 13] [µg/mL] | MIC [4, 14] [µg/mL] | MIC [5, 15] [µg/mL] | MIC [6, 16] [µg/mL] | MIC [7, 17] [µg/mL] | MIC [8, 18] [µg/mL] | MIC [9, 19] [µg/mL] | MIC [10, 20] [µg/mL] | also measured |
| --- | --- | --- | --- | --- | --- | --- | --- | --- | --- | --- | --- | --- | --- | --- |
| CC(C)(O/N=C(\C(=O)N[C@@H]1C(=O)N2C(C(=O)[O-])=C(C[n+]3ccccc3)CS[C@H]12)c1csc(N)n1)C(=O)O [Ceftazidime, reference compound] | 25 (≈ 45.7 µM) |  |  | 0.39 (≈ 0.714 µM) | 0.2 (≈ 0.366 µM) |  |  |  |  |  |  |  |  | MIC ([1]; Staphylococcus aureus, 209PJC1, read-out: Minimum Inhibitory Concentration): 3.13 µg/mL (≈ 5.73 µM); MIC (Proteus vulgaris 76; Proteus vulgaris, 76, read-out: Minimum Inhibitory Concentration): 0.05 µg/mL (≈ 0.0915 µM); MIC ([3]; Pseudomonas aeruginosa, IMA1007, read-out: Minimum Inhibitory Concentration): 0.78 µg/mL (≈ 1.43 µM); MIC ([4]; Pseudomonas aeruginosa, E2, read-out: Minimum Inhibitory Concentration): 0.39 µg/mL (≈ 0.714 µM); MIC [5]: 25 µg/mL (≈ 45.7 µM); MIC ([6]; Enterobacter cloacae, GN7471, read-out: Minimum Inhibitory Concentration): 3.13 µg/mL (≈ 5.73 µM); MIC ([7]; Klebsiella pneumoniae, GN69, read-out: Minimum Inhibitory Concentration): 0.1 µg/mL (≈ 0.183 µM); MIC ([8]; Serratia marcescens, NO.1, read-out: Minimum Inhibitory Concentration): ≤ 0.025 µg/mL; MIC ([9]; Bacillus subtilis, ATCC6633, read-out: Minimum Inhibitory Concentration): 3.13 µg/mL (≈ 5.73 µM); MIC ([10]; Pseudomonas aeruginosa, M0148, read-out: Minimum Inhibitory Concentration): 1.56 µg/mL (≈ 2.85 µM) |
